Test results: PubChem BioAssay (NCI)
Values joined by “and” are separate entries in the source; they are usually repeats but may differ in a detail not shown here. Equal values may be shown once.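 Growth conditions: 96-well plates. Treatment: test compound, 48 hours, 5 concentrations. Analysis: linear interpolation between bracketing concentrations; unreached endpoints set to highest concentration. Abbreviation: GI50, concentration required for 50% inhibition of growth. TGI is the concentration that stops growth completely.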

Experiments:
Assay in all cases: NCI tumour cell line growth inhibition, 48 h
HCT-116 colon = tested on: HCT-116 colon
HOP-92 NSCLC = tested on: HOP-92 NSCLC
NCI-H226 lung = tested on: NCI-H226 lung
NCI-H23 lung = tested on: NCI-H23 lung
NCI-H522 lung = tested on: NCI-H522 lung
OVCAR-5 ovarian = tested on: OVCAR-5 ovarian
SK-MEL-5 melanoma = tested on: SK-MEL-5 melanoma
SNB-19 CNS = tested on: SNB-19 CNS
SR leukemia = tested on: SR leukemia
U251 CNS = tested on: U251 CNS

Row | Compound | TGI (HCT-116 colon) | TGI (HOP-92 NSCLC) | TGI (NCI-H226 lung) | TGI (NCI-H23 lung) | TGI (NCI-H522 lung) | TGI (OVCAR-5 ovarian) | TGI (SK-MEL-5 melanoma) | TGI (SNB-19 CNS) | TGI (SR leukemia) | TGI (U251 CNS) | GI50 (HCT-116 colon) | GI50 (HOP-92 NSCLC) [µM] | GI50 (NCI-H226 lung) [µM] | GI50 (NCI-H23 lung) [µM] | GI50 (NCI-H522 lung) [µM] | GI50 (OVCAR-5 ovarian) [µM] | GI50 (SK-MEL-5 melanoma) [µM] | GI50 (SNB-19 CNS) [µM] | GI50 (SR leukemia) [µM] | GI50 (U251 CNS) [µM]
1 | C/C(=N/NC(=O)CC(=O)N(C(=O)c1ccccc1Cl)c1ccc(C)cc1)c1cc2ccccc2oc1=O | > 100 µM | > 100 µM | > 100 µM | > 100 µM | > 100 µM | > 100 µM | > 100 µM | > 100 µM | > 100 µM | > 100 µM |  |  |  |  |  |  |  |  |  | 
2 | COc1ccc(-c2cc(/C=C/C(=O)c3cc(OC)c(OC)c(OC)c3)[nH]n2)cc1OC | 1.79 µM | 5.48 µM | 7.91 µM | 4.91 µM | 2.68 µM | 4.31 µM | 2.93 µM | 5.32 µM | 2.26 µM | 2.53 µM | 0.425 µM | 1.61 | 1.93 | 1.97 | 1.33 | 1.76 | 1.58 | 1.8 | 0.22 | 1.24
3 | O=C(/C=C/c1cn(-c2ccccc2)nc1-c1ccc([N+](=O)[O-])cc1)c1ccc(Cl)cc1 | > 100 µM | 70.1 µM | > 100 µM | > 100 µM | > 100 µM | > 100 µM | > 100 µM | 27 µM | > 100 µM |  | 2.42 µM | 3.36 |  | 3.67 | 6.41 | > 100 |  | 4.12 | 2.76 | 
4 | NC(=O)c1cc(I)ccc1NC(=O)COc1ccccc1 | 16.1 µM | 21.4 µM | > 100 µM | 22.4 µM | 12.9 µM | > 100 µM | > 100 µM | 44.1 µM | > 74.1 µM | 10.8 µM | 0.499 µM | 2.98 | 3.48 | 0.822 | 0.508 | 2.24 | 0.533 | 0.699 | 0.285 | 0.365
5 | O=C(O)C1C(C(=O)O)C2(Cl)C(Cl)=C(Cl)C1(Cl)C2(Cl)Cl.[Cd] (stereo unspecified) | 32.5 µM | 34.8 µM | > 66.7 µM | 9.17 µM | 1.78 µM | 32.9 µM | 5.63 µM | > 100 µM | 32.7 µM | 24.9 µM | 17.5 µM | 19.2 | 34.9 | 2.62 | 0.412 | 18.2 | 1.37 | 40 | 2.8 | 11.2
6 | C=CC(=O)Nc1cccc(Nc2nc(Nc3ccc(OCCOC(F)F)cc3)ncc2F)c1 | 20 µM | 6.75 µM | 11.2 µM | > 100 µM | 7.44 µM | > 100 µM | 15.1 µM | > 100 µM | > 100 µM | 18.9 µM | 2.69 µM | 2.28 | 0.52 | 6.99 | 1.88 | 4.12 | 3.74 | 5.6 | 2.88 | 2.39
7 | Cc1ccc(/C=C2\CNC/C(=C\c3ccc(C)cc3)C2=O)cc1 | 0.382 µM and 1.93 µM | 5.49 µM and 14.5 µM | 4.85 µM and 4.96 µM | 3.79 µM and 4.1 µM | 3.04 µM and 4.63 µM | 3.56 µM and 33.9 µM | 4.1 µM and 6.03 µM | 4.78 µM and 15 µM | 2.87 µM and 1.83 µM | 0.707 µM and 1.76 µM | 0.202 µM | 2.21 |  |  | 1.64 | 1.89 | 2.1 | 1.93 | 0.565 | 0.227
8 | CC[C@@]1(O)C(=O)OCc2c1cc1n(c2=O)Cc2cc3c(N)cccc3nc2-1 | 0.737 µM | 1.99 µM | 0.105 µM | 0.0511 µM and 0.162 µM | 1.35 µM | 1.1 µM | 0.0806 µM | 6.05 µM |  | 1.55 µM | 0.00979 µM and 0.0559 µM |  | 0.0179 | 0.00525 | 0.0234 | 0.0763 | 0.0214 |  | 0.00165 | 0.00889
9 | O=c1[nH]c2cc(Cl)c(Cl)cc2n2cc3ccccc3c12 | 35.3 µM | 34.7 µM | 35.9 µM | 30.9 µM | 31 µM | 30.8 µM | 41.7 µM | 56.6 µM | 39 µM | 30 µM | 21 µM | 18.4 | 18.6 | 17.2 | 10.2 | 17.1 | 19.9 | 21.6 | 17.3 | 16.4
10 | Fc1cc(-c2nnc3n2N=C(c2ccc(Cl)cc2Cl)CS3)c(Cl)cc1Cl | 68.7 µM | > 100 µM | > 100 µM | > 100 µM | > 100 µM | > 100 µM | 65.1 µM | > 100 µM | > 100 µM | > 100 µM | 25.4 µM | 54.2 | 36.5 | 82.5 | 50.8 | > 100 | 26.1 | 25.4 | > 100 | 38.2
11 | O=C(O)Cn1ccnc1[N+](=O)[O-] | > 100 µM | > 100 µM | > 100 µM | > 100 µM | > 100 µM | > 100 µM | > 100 µM | > 100 µM | > 100 µM | > 100 µM |  |  |  |  |  |  |  |  |  | 
12 | COc1ccc2[nH]c3c(=O)[nH]ncc3c2c1 | > 100 µM | > 100 µM | > 100 µM | > 100 µM | > 100 µM | > 100 µM | > 100 µM | > 100 µM | > 100 µM | > 100 µM |  |  |  |  |  |  |  |  |  | 
13 | COC(=O)C1(F)C(=O)NC(=O)NC1OC (stereo unspecified) | 94.7 µM | > 100 µM | > 100 µM | > 100 µM | > 100 µM | > 100 µM | > 100 µM | > 100 µM | > 100 µM | > 100 µM |  |  |  |  |  |  |  |  |  | 
14 | COc1cc2cc(Oc3ccc(NC(=O)c4cccc5c4OCCO5)cc3)c(C)nc2cc1OC | > 100 µM | 30.6 µM | 21.2 µM | > 100 µM | 45.1 µM | > 100 µM | > 100 µM | > 100 µM | > 100 µM | > 100 µM | 3.42 µM | 3.93 | 3.21 | 8.14 | 4.28 | 10.8 | 2.92 | 15.5 | 4.12 | 5.03
